Assay results reported in patent US11377442B2, “Small molecule agonists and antagonists of NR2F6 activity” (ZANDER THERAPEUTICS, INC., priority 2016, dated 2022).

Tests used:
Format in all cases: cell-based
Renilla_ERa = assay: Renilla signal in ERα counterscreen (Renilla_ERa); conditions: read-out: Renilla ERalpha transient, cmpd/DMSO (mean)
NR2F6 = target: T1, NR2F6 (Homo sapiens, UniProt P10588); assay: NR2F6 agonist screening, Firefly signal cmpd/DMSO; conditions: for Firefly F4, cmpd/DMSO (mean): clone F4; for activity (in words): screening result
T1 construct: expressed in transfected cells; also transient transfection
T1 sequence (P10588 1-404): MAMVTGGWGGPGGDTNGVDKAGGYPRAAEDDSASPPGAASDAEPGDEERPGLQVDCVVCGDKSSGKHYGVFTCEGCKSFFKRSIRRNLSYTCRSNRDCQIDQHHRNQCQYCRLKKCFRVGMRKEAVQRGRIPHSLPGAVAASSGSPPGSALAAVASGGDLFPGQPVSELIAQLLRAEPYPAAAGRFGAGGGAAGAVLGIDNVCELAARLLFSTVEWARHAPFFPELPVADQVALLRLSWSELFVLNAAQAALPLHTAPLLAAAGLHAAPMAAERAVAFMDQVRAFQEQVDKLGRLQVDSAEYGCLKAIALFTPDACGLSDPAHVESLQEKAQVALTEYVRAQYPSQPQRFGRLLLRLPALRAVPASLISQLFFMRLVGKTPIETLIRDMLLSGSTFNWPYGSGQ

Renilla = Renilla signal in NR2F6 agonist screening, cmpd/DMSO; conditions: Renilla, clone F4, read-out: Renilla F4, cmpd/DMSO (mean)
ERα [1] = target: T2, ERα (Homo sapiens, UniProt P03372); assay: Counterscreening, Firefly signal with ERα transient transfection (Firefly_ERa)
T2 construct: expressed in transfected cells
T2 sequence (P03372 1-595): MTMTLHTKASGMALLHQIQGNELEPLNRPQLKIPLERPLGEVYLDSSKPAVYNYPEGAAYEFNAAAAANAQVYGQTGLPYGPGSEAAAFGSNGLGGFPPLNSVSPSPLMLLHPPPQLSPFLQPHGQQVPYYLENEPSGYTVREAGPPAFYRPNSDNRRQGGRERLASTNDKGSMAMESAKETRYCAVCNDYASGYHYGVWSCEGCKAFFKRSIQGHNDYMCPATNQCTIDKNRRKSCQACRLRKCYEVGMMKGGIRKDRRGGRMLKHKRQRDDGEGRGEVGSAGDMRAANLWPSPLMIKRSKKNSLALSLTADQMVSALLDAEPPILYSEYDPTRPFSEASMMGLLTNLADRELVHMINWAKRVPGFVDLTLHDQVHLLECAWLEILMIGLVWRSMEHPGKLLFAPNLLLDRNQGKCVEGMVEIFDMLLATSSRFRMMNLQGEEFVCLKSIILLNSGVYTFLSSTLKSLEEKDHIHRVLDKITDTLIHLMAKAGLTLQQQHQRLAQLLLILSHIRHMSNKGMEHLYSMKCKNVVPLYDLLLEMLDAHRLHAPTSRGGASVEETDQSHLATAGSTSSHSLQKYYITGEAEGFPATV

ERα [2] = target: T2, ERα; assay: as above; conditions: 10 uM
Method: The methodology for screening candidate compounds as NR2F6 agonists was as follows: For primary screening, hit criteria was ACT %>DMSO control+5*SD (DSO control) at 10 μM, or any compound with S/B>2. For rescreening, hit criteria was ACT %>DMSO control+3*SD (DSO control) in each replicate at 10 μM. For counterscreening, hit criteria was mean ACT<DMSO control+3*SD (DMSO control) with ERα transient transfection in duplicate at 10 μM.

Compound | fold induction at 2 µM (Renilla_ERa) | fold induction at 10 µM (Renilla_ERa) | fold induction at 40 µM (Renilla_ERa) | Firefly F4, cmpd/DMSO (mean) (NR2F6; 2 uM) | Firefly F4, cmpd/DMSO (mean) (NR2F6; 10 uM) | Firefly F4, cmpd/DMSO (mean) (NR2F6; 40 uM) | fold induction at 2 µM (Renilla) | fold induction at 10 µM (Renilla) | fold induction at 40 µM (Renilla) | Firefly ERalpha transient, cmpd/DMSO (mean) (ERα [1]; 2 uM) | Firefly ERalpha transient, cmpd/DMSO (mean) (ERα [1]; 40 uM) | Firefly ERalpha transient, cmpd/DMSO (mean) (ERα [2]) | activity (in words) (NR2F6)
CCOC(=O)c1cnc2c(C)cc(C)cc2c1N1CCCC(N(C)C)C1 (centres unmarked) [Compound Z27] | 1.2 | 1.2 | 0.8 | 1.3 | 1.3 | 0.7 | 1.2 | 1.2 | 0.9 | 1.3 | 0.5 | 2.1 | –
Cc1cc(C)c2ncc(C(=O)O)c(NCCCN(C)C)c2c1 [Compound Z28] | 1.1 | 1.3 | 1 | 1.0 | 0.9 | 1.3 | 1 | 1.2 | 1.2 | 1.8 | 1.3 | 1.1 | –
Cc1cc(C)c2ncc(C(=O)OC(C)C)c(NCCCN(C)C)c2c1 [Compound Z29] | 0.8 | 1.2 | 0.7 | 1.3 | 1.1 | 1.1 | 0.8 | 0.9 | 0.5 | 1.0 | 6.7 | 1.2 | –
CNC(=O)c1cnc2c(C)cc(C)cc2c1NCCCN(C)C [Compound Z30] | 1.1 | 1.1 | 1.6 | 1.4 | 1.1 | 1.2 | 1.1 | 1.1 | 0.7 | 1.4 | 1.4 | 1.1 | –
Cc1cc(C)c2ncc(C(=O)N(C)C)c(NCCCN(C)C)c2c1 [Compound Z31] | 1 | 1 | 1 | 0.8 | 0.9 | 1.1 | 1.1 | 1 | 1 | 0.9 | 1.3 | 1.6 | –
Cc1cc(C)c2ncc(C(=O)N3CCCC3)c(NCCCN(C)C)c2c1 [Compound Z32] | 1 | 1.1 | 0.8 | 1.8 | 0.9 | 1.5 | 1 | 1 | 1.3 | 1.8 | 1.5 | 0.8 | –
CCOC(=O)c1cnc2ccc(C)cc2c1NCCCN(C)C [Compound Z33] | 1 | 1.5 | 0.9 | 1.7 | 2.0 | 6.6 | 1.1 | 1 | 0.6 | 2.1 | 8.8 | 1.8 | particularly good activity
CCOC(=O)c1cnc2cc(C)c(C)cc2c1NCCCN(C)C [Compound Z34] | 1.5 | 1 | 0.7 | 1.6 | 3.8 | 0.7 | 1.2 | 0.8 | 0.6 | 2.0 | 0.9 | 10.3 | particularly good activity
CCOC(=O)c1cnc2c(Cl)cc(Cl)cc2c1NCCCN(C)C [Compound Z35] | 1.1 | 1.3 | 0.9 | 1.9 | 1.5 | 1.2 | 1.1 | 2 | 0.7 | 2.6 | 7.2 | 2.2 | –
CCOC(=O)c1cnc2c(Cl)cc(Cl)cc2c1NCCCN1CCCC1 [Compound Z36] | 1.2 | 1.6 | 0.8 | 0.7 | 1.8 | 0.7 | 1 | 1.8 | 0.6 | 1.2 | 5.8 | 1.6 | –
